Among the data in US12274703B2, “Compositions and methods of treatment for neurological disorders comprising a dementia” (Gliapharm SA, priority 2017, dated 2025) are Emax values, retold here.

SMILES strings stand for the structures. Structures can show the parent of a compound that is named as a salt.

One test has as its system primary astrocytes. In words: High throughput screening for lactate secretion: acidification of extracellular medium (SNARF5). The class given is cell-based, mouse. The note with it: Mus musculus, Astrocyte, 1.5 h; Appendix I; primary screening, 10 uM, 90 min; relative to positive control; read-out: Score. As for the experimental part:
Primary cultures of cerebrocortical astrocytes were obtained from 1-2-day-old OF1 mouse pups (Charles River Laboratories). Briefly, cortices were isolated and minced in small pieces under a dissecting microscope. The cells were incubated for 30 min at 37° C. in a solution containing 20 U/ml of papain enzyme (Worthington Biochemical), L-cysteine 1 mM (Sigma), and 10 kU/ml DNase I (Worthington Biochemical) for an enzymatic dissociation. Papain activity was stopped by the addition of fetal calf serum (FCS) to the solution, and a single-cell suspension was then obtained by mechanical dissociation, which consisted in cells trituration in a DMEM (D7777, Sigma-Aldrich) medium (supplemented with 44 mm NaHCO3, and 10 ml/L antibiotic/antimycotic solution) containing 10% FCS. The cells were seeded at an average density of 6×10^4 cells/cm^2 in poly-D-lysine-coated 96, 12 or 6-well culture plates, depending on their use, and incubated at 37° C. in a humidified atmosphere containing 5% CO2/95% air. Culture medium was renewed twice per week. Cells were stimulated and harvested between DIV14 and DIV17, when confluence and cell growth were optimal.
Secretion of lactate in a high-throughput screening (HTS) fashion was measured indirectly through the acidification of extracellular medium. To this end, primary astrocytes grown in 96-well plates for 17 days were stimulated with the compounds as listed herein.
After washing the cells twice with stimulation medium (DMEM (D5030, Sigma), 3 mM NaHCO3 and 5 mM Glucose) at 37° C., cells were stimulated with the compounds at a final concentration of 10 uM (1% DMSO final) in 50 ul per well of stimulation medium supplemented with 10 uM of the extracellular pH sensor SNARF-5F %-(AND-6)-CAR (Life Technologies Corporation). Each compound was tested in two different plates for duplicates.
After 90 min stimulation, fluorescence was read at exc. (excitation) 480 nm/emm. (emission) 580 nm and at exc 480 nm/emm. 630 nm. The ratio of fluorescence between 630 nm and 580 emission values, which represents extracellular pH, was calculated.
In each plate, 8 wells were used for negative controls (DMSO) and 8 wells were used for positive controls (CCCP 2 uM in DMSO). Z prime values were calculated for each of the plates tested and values <0 were discarded.
The average and SD of compounds' values tested in duplicates were calculated, and compound was noted as HIT when the difference between compound's average and negative control's average was greater than three times the sum of compound's SD and negative controls' SD. Only scores greater than 40% were considered as lead hits for the CDC54K library; for the remaining libraries, all hits were considered. Scores are calculated as the % of activity compared to the positive control in each plate (which is 100%).
Primary screening hits were cherry picked on new plates and confirmed for SNARF5 effect, after having discarded those compounds that are fluorescent (exc. 480 nm/emm. 580 nm or 630 nm) before stimulation. Extracellular medium was next analyzed for extracellular lactate quantification for secondary screening.
Identification of lactate-enhancing drugs with high throughput screening (HTS) experiments on astrocytes primary cultures using extracellular pH dye (SNARF5F 5-(and 6)-carboxylic acid) for 90 min. The procedure is described in Material and Methods (2. Cell culture, 2.1. HTS for lactate secretion and 2.2. Extracellular lactate quantification).
The procedure was performed as follows: • Primary screening: acidification of the extracellular medium • Primary screening confirmation: acidification of the extracellular medium, removal of compounds with fluorescent activity at exc. 480 nm/emm. 580 nm or 630 nm. • Secondary screening: dosage of extracellular lactate
On to `O=S(=O)(c1ccc(F)cc1)N1CCSC1c1ccccc1Cl` (stereo not shown) [4052-4279], for which the Emax at 10 µM was 15.6%. `CCc1ccc(S(=O)(=O)N2CCSC2c2ccc(OC)c(OC)c2)cc1` (stereo not shown) [4052-4304]: the Emax at 10 µM turned out to be 49.4%.

As to `Cc1nc2c(c(Nc3cccc(C(F)(F)F)c3)n1)CCC2` [D278-0514], the Emax at 10 µM worked out at 0%. Still for that read-out and setting: the value for `Cc1oc2ncnc(N3CCCC(C(=O)NCc4ccccn4)C3)c2c1C` (stereo not shown) [F228-0350] was 95.8%. As to `Cc1oc2ncnc(N3CCCC(C(=O)NCc4cccnc4)C3)c2c1C` (stereo not shown) [F228-0351], the Emax at 10 µM came to 59.2%.

Consider `Cc1oc2ncnc(N3CCCC(C(=O)NCc4ccccc4)C3)c2c1C` (stereo not shown) [F228-0365], for which the Emax at 10 µM came out at 103%. Turning to `CCNC(=O)C1CCCN(c2ncnc3oc(C)c(C)c23)C1` (stereo not shown) [F228-0534], the Emax at 10 µM amounted to 35.4%. Consider `CNC(=O)C1CCCN(c2ncnc3oc(C)c(C)c23)C1` (stereo not shown) [F228-0541], for which the Emax at 10 µM is 15.3%. For the compound `Cc1nc(N2CCCC(C(=O)NCc3cccnc3)C2)c2c(C)c(C)oc2n1` (stereo not shown) [F228-0856], the Emax at 10 µM came out at 18.6%.

For `COc1ccc(Cl)cc1S(=O)(=O)NCc1ccncc1` [F0376-0203], the Emax at 10 µM was found to be 20.3%. For `Cc1cccc([N+]2=C3SCCCN3C(O)(c3ccc(Cl)cc3)C2)c1` (stereo not shown) [F0522-0533], the Emax at 10 µM was found to be 55.7%. For `COc1ccccc1[N+]1=C2CCCCN2C(O)(c2ccc(F)cc2)C1` (stereo not shown) [F0524-0338], the Emax at 10 µM was 73.6%.

For the compound `OC1(c2ccccc2)C[N+](c2ccc(Cl)cc2)=C2CCCCN21` (stereo not shown) [F0524-0488], the Emax at 10 µM came to 51.2%. In the case of `COc1ccc(C2(O)C[N+](c3ccccc3C)=C3CCCCN32)cc1` (stereo not shown) [F0524-0507], the Emax at 10 µM is 61.2%. Turning to `CCOc1ccc(C2(O)C[N+](c3ccccc3C)=C3CCCCN32)cc1` (stereo not shown) [F0524-0511], the Emax at 10 µM is 70%. On to `COc1ccccc1[N+]1=C2CCCCCN2C(O)(c2ccc(F)cc2)C1` (stereo not shown) [F0524-0611], for which the Emax at 10 µM worked out at 53.4%. For `COc1ccc(C2SCCN2S(=O)(=O)c2ccc(C)c(C)c2)cc1OC` (stereo not shown) [F1462-0491], the Emax at 10 µM was determined as 27.2%. Same read-out and setting: with `COc1ccccc1Nc1nc(N2CCOCC2)c2ccccc2n1` [F3007-0009] the figure was 19.8%; with `CC(=O)N1CCCc2cc(S(=O)(=O)NCc3ccc(Cl)cc3)ccc21` [G855-0033], 34.7%; with `CC(=O)N1CCCc2cc(S(=O)(=O)NCc3ccccc3)ccc21` [G855-0210], 20.6%. Consider `COc1ccc(C2(O)C[N+](c3cc(C)ccc3C)=C3SCCCN32)c(F)c1` (stereo not shown) [K404-0183], for which the Emax at 10 µM stood at 89.6%. The same measure, in the same setting: the value for `COc1ccc([N+]2=C3SCCCN3C(O)(c3cccc([N+](=O)[O-])c3)C2)cc1` (stereo not shown) [K404-0277] was 0%; that for `Cc1cccc([N+]2=C3SCCCN3C(O)(c3ccc(F)cc3)C2)c1` (stereo not shown) [K404-0394] was 34.7%; that for `Cc1cccc([N+]2=C3SCCCN3C(O)(c3ccc(OC(F)F)cc3)C2)c1` (stereo not shown) [K404-0400] was 36.3%.

As for `CCc1ccc(C2(O)C[N+](c3ccccc3OC)=C3CCCCN32)cc1` (stereo not shown) [K404-0672], the Emax at 10 µM was 125%. Still for that read-out and setting: with `CCOc1ccc(C2(O)C[N+](c3ccccc3OC)=C3CCCCN32)cc1` (stereo not shown) [K404-0673] the figure was 93.1%. In the case of `Cc1cccc([N+]2=C3CCCCN3C(O)(c3ccc(F)cc3)C2)c1C` (stereo not shown) [K404-0685], the Emax at 10 µM is 67.9%. For the compound `Cc1ccc(C)c([N+]2=C3CCCCN3C(O)(c3ccc(F)cc3)C2)c1` (stereo not shown) [K404-0697], the Emax at 10 µM was 59.6%. The same measure, in the same setting: the value for `COc1ccc(C2(O)C[N+](c3cccc(C)c3)=C3CCCCN32)cc1` (stereo not shown) [K404-0796] was 86.1%; that for `Cc1cccc([N+]2=C3CCCCN3C(O)(c3ccc(Cl)cc3)C2)c1` (stereo not shown) [K404-0800] was 97.3%; that for `Cc1ccc([N+]2=C3CCCCCN3C(O)(c3ccc([N+](=O)[O-])cc3)C2)cc1` (stereo not shown) [K404-0828] was 0%. On to `COc1ccccc1[N+]1=C2CCCCCN2C(O)(c2ccccc2)C1` (stereo not shown) [K404-0838], for which the Emax at 10 µM was 103%. As for `COc1ccccc1[N+]1=C2CCCCCN2C(O)(c2cccc([N+](=O)O)c2)C1` (stereo not shown) [K404-0842], the Emax at 10 µM worked out at 16.9%. `COc1ccc(C2(O)C[N+](c3cc(C)ccc3C)=C3CCCCCN32)cc1OC` (stereo not shown) [K404-0852]: the Emax at 10 µM was found to be 0%. Consider `COc1ccc(OC)c([N+]2=C3CCCCCN3C(O)(c3ccc(C)cc3)C2)c1` (stereo not shown) [K404-0855], for which the Emax at 10 µM is 58.5%. On the same count and under the same terms, the value for `CCOc1ccc(C2(O)C[N+](c3cc(OC)ccc3OC)=C3CCCCCN32)cc1` (stereo not shown) [K404-0860] was 57.9%; that for `COc1ccc(OC)c([N+]2=C3CCCCCN3C(O)(c3ccc([N+](=O)[O-])cc3)C2)c1` (stereo not shown) [K404-0863] was 0%. Regarding `COc1ccc(C2(O)C[N+](c3ccccc3C)=C3CCCCCN32)cc1OC` (stereo not shown) [K404-0906], the Emax at 10 µM worked out at 19.1%. Still for that read-out and setting: with `Cc1cccc([N+]2=C3CCCCCN3C(O)(c3ccc(F)cc3)C2)c1` (stereo not shown) [K404-0910] the figure was 72.6%. As for `Cc1cccc([N+]2=C3CCCCCN3C(O)(c3ccc([N+](=O)[O-])cc3)C2)c1` (stereo not shown) [K404-0914], the Emax at 10 µM came to 0%. As to `Cc1cccc([N+]2=C3CCCCCN3C(O)(c3cccc([N+](=O)O)c3)C2)c1` (stereo not shown) [K404-0915], the Emax at 10 µM was found to be 0%. For the compound `Cc1cccc(NS(=O)(=O)c2cc(-c3noc(C)n3)cs2)c1` [L287-0220], the Emax at 10 µM stood at 35.2%.

With `O=S(=O)(NC1CCCC1)c1cc(-c2noc(C3CCC3)n2)cs1` [L287-1221], the Emax at 10 µM was found to be 51.6%.

For the compound `CC(=O)c1ccc(NS(=O)(=O)c2cc(-c3noc(C4CCCC4)n3)cs2)cc1` [L287-1577], the Emax at 10 µM worked out at 119%. `Cc1ccc(CNS(=O)(=O)c2cc(-c3noc(C4CCCC4)n3)cs2)cc1` [L287-1641]: the Emax at 10 µM worked out at 77.2%. For `CCN(Cc1ccccc1)S(=O)(=O)c1cc(-c2noc(C3CCCC3)n2)cs1` [L287-1758], the Emax at 10 µM was 0%. As to `Cn1nccc1-c1csc(S(=O)(=O)Nc2ccc(F)cc2)c1` [L924-0760], the Emax at 10 µM was 69.1%. For `COc1ccc(C)cc1NS(=O)(=O)c1cc(-c2ccnn2C)cs1` [L924-0830], the Emax at 10 µM is 78.2%. `Cc1cccc(NS(=O)(=O)c2cc(-c3ccnn3C)cs2)c1` [L924-0884]: the Emax at 10 µM was 65.6%. Turning to `CCn1nccc1-c1csc(S(=O)(=O)Nc2cc(C)ccc2C)c1` [L924-0988], the Emax at 10 µM turned out to be 52.7%. Take `CCn1nccc1-c1csc(S(=O)(=O)Nc2ccccc2OC)c1` [L924-1088]: the Emax at 10 µM amounted to 78.5%.

The test is the same for the next values; noted with them: Mus musculus, Astrocyte, 1.5 h; Prestwick hits; 10 uM, 90 min; activity relative to positive control CCCP 2 uM; read-out: Score.
For `CCCCC(CC)CNC(=N)NC(=N)NCCCCCCNC(=N)NC(=N)NCC(CC)CCCC` (stereo not shown) [Alexidine dihydrochloride], the Emax at 10 µM was found to be 38.9%.

`Clc1ccc2c(c1)CCc1cccnc1C2=C1CCNCC1` [Desloratadine]: the Emax at 10 µM was found to be 6.08%. On the same count and under the same terms, the value for `CCCCOc1cc(C(=O)NCCN(CC)CC)c2ccccc2n1` [Dibucaine] was 6.12%; that for `CCC(=O)O[C@@H](O[P@](=O)(CCCCc1ccccc1)CC(=O)N1C[C@H](C2CCCCC2)C[C@H]1C(=O)O)C(C)C` [Fosinopril] was 5.71%. Take `CC(COc1ccccc1)NC(C)C(O)c1ccc(O)cc1` (stereo not shown) [Isoxsuprine hydrochloride]: the Emax at 10 µM was 5.5%.

The test is the same for the next values; noted with them: Mus musculus, Astrocyte, 1.5 h; Prestwick hits; 10 uM, 90 min; relative to positive control CCCP 2 uM; read-out: HTS Score (lactate).
Turning to `CCCCC(CC)CNC(=N)NC(=N)NCCCCCCNC(=N)NC(=N)NCC(CC)CCCC` (stereo not shown) [Alexidine dihydrochloride], the Emax at 10 µM was 38.9%. Consider `Clc1ccc2c(c1)CCc1cccnc1C2=C1CCNCC1` [Desloratadine], for which the Emax at 10 µM came to 6.1%. Same read-out and setting: the value for `CCCCOc1cc(C(=O)NCCN(CC)CC)c2ccccc2n1` [Dibucaine] was 6.1%; that for `CCC(=O)O[C@@H](O[P@](=O)(CCCCc1ccccc1)CC(=O)N1C[C@H](C2CCCCC2)C[C@H]1C(=O)O)C(C)C` [Fosinopril] was 5.7%. For `CC(COc1ccccc1)NC(C)C(O)c1ccc(O)cc1` (stereo not shown) [Isoxsuprine hydrochloride], the Emax at 10 µM turned out to be 5.5%.
